The values that follow come from patent publication US20050118129A1, “Gentle and enhanced preservative systems” (priority 2003, published 2005).

Molecules are shown by their SMILES.

The subject of test [1] is Aspergillus niger (ATCC 16404). Nature of the test: Comparison of strength between saccharides, preservative efficacy against fungus. It counts as cell-based. On the procedure:
(§1) The preservative efficacy of various saccharides and a cationic polysaccharide were tested against one bacteria, i.e., Staphylococcus aureus (ATCC 6538), and against one fungus, i.e., Aspergillus niger (ATCC 16404). Acceptance criteria for the bacteria established that the number of viable bacteria, recovered per ml, be reduced by not less than 3.0 logs at 14 days. After the rechallenge at day 14, the concentration of bacteria shall be reduced by at least 3.0 logs at day 28. Acceptance criteria for the fungus established that the number of viable yeasts and molds, recovered per ml, remain at or below the initial concentrations within an experimental error of ±0.5 logs within 14 days. After day 28, the concentration of mold and yeast shall remain at or below the concentrations after rechallenge within experimental error of ±0.5 logs. Results of the saccharide/cationic polysaccharide preservative efficacy test are set forth below in Table 1.

Test [2] concerns Staphylococcus aureus (ATCC 6538). Briefly: Comparison of strength between saccharides, preservative efficacy against bacteria. It counts as cell-based. On the procedure: as §1

For `O=C[C@H](O)[C@@H](O)[C@H](O)[C@H](O)CO` [D-Glucose], the “Log Reduction of Aspergillus niger (ATCC 16404) at 28 Days (Fungus)” value (“Log Reduction of Aspergillus niger” for short) in test [1] is listed as 3.7 Log. In test [2], the “Log Reduction of Staphylococcus aureus (ATCC 6538) at 28 Days (Bacteria)” value (shortened to “Log Reduction of Staphylococcus aureus”) was 1.9 Log.
For `O=C[C@H](O)[C@@H](O)[C@@H](O)[C@H](O)CO` [Galactose], in test [1], the “Log Reduction of Aspergillus niger” value was found to be 1.4 Log. The “Log Reduction of Staphylococcus aureus” value in test [2] is recorded as 2.2 Log.
On to `OC[C@@H](O)[C@@H](O)[C@H](O)[C@H](O)CO` [Mannitol], for which the “Log Reduction of Aspergillus niger” value in test [1] worked out at 2.4 Log. Besides, the “Log Reduction of Staphylococcus aureus” value in test [2] is given as 2.0 Log.
As to `CO[C@H]1O[C@H](CO)[C@@H](O)[C@H](O)[C@H]1O` [Methyl-α-D-gluco-pyranose], the “Log Reduction of Aspergillus niger” value in test [1] is recorded as 1.6 Log. Besides, the “Log Reduction of Staphylococcus aureus” value in test [2] is reported as 1.7 Log.
Regarding `CO[C@H]1O[C@H](CO)[C@@H](O)[C@H](O)[C@H]1O` [Methyl-α-D-gluco-pyranoside], in test [1], the “Log Reduction of Aspergillus niger” value is listed as 2.9 Log. Further, the “Log Reduction of Staphylococcus aureus” value in test [2] was determined as 1.2 Log.
Taken in the same sequence, the figures for `OC[C@H]1O[C@H](O[C@H]2O[C@H](CO)[C@@H](O)[C@H](O)[C@H]2O)[C@H](O)[C@@H](O)[C@@H]1O` [Trehalose] were 2.0 Log and 1.3 Log.
On to `O=C(CO)[C@@H](O[C@H]1O[C@H](CO)[C@@H](O)[C@H](O)[C@H]1O)[C@H](O)[C@H](O)CO` [Turanose], for which the “Log Reduction of Aspergillus niger” value in test [1] is 2.1 Log. The “Log Reduction of Staphylococcus aureus” value in test [2] worked out at 1.4 Log.
